# According to patent US8426420B2, “Heterocyclic pyrazole-carboxamidesas P2Y12 antagonists” (Sanofi, priority 2007, dated 2013):
# Target: human P2Y12 receptor (Homo sapiens, UniProt Q9H244)
# Test: Human P2Y12 recombinant cell membrane binding assay with 33P 2MeS-ADP
# Conditions: competition against 33P 2MeS-ADP, membranes of CHO cells with recombinant human P2Y12 receptor
# Procedure: The ability of the compounds of the formula Ito inhibit the P2Y12 receptor can be assessed by determining the concentration of the compound of the formula I that binds to the human P2Y12 Recombinant Cell Membrane Binding Assay with 33P 2MeS-ADP.
# Human P2Y12 Recombinant Cell Membrane Binding Assay
# The ability of a test compound to bind to the P2Y12 receptor was evaluated in a recombinant cell membrane binding assay. In this competitive binding assay, the test compound competed against a radiolabeled agonist for binding to the P2Y12 receptor, expressed on the cell membrane. Inhibition of binding of the labeled material was measured and correlated to the amount and potency of the test compound. This binding assay is a modification of the procedure described by Takasaki, J. et. al, Mol. Pharmacol., 2001, Vol. 60, pg. 432. A membrane preparation was prepared from Chinese Hamster Ovary (CHO) cells with recombinant expression of the human P2Y12 receptor according to standard procedures as a source of P2Y12.
# To a 96-well microtiterplate the following were added: a) 24 μl of assay buffer (10 mM HEPES, 138 mM NaCl, […] KCl, 12 mM NaHCO3, 1 mM EDTA-Na, 0.1% BSA, pH 7.4) b) 1 μL compound in DMSO c) 50 μL P2Y12 CHO membrane (20 μg/ml) and after 15 min at RT d) 25 μL of 1.61 nM 33P 2MeS-ADP (Perkin Elmer NEN custom synthesis, specific activity ˜2100 Ci/mmol) made in assay buffer.
# After 20 min incubation at RT samples were transferred to 96-well microtiter filterplates (Millipore HTS GF/B), pre-wetted for 20 min with 300 μL of stop buffer (10 mM HEPES, 138 mM NaCl pH 7.4) and then filtered through completely with a Millipore plate vacuum. Next, wells were washed four times with 400 μl/well of stop buffer on a plate vacuum. The plate was disassembled and allowed to air dry overnight with the filter side up over night. The filter plates were snapped into adapter plates and 0.1 mL of Microscint 20 Scintillation Fluid (Perkin Elmer #6013621) was added to each well. The top of the filterplate was sealed with plastic plate covers. The sealed filterplate were incubated 2 hours at RT. A Microbeta Scintillation Counter was used to measure counts.
# Compounds were diluted as 10 mM DMSO stocks and tested in a four-point, five-fold dilution series run in triplicate beginning at 10 μM, final concentration. Data were analyzed using a four-parameter curve fit with a fixed minimum and maximum experimentally defined as the average positive and negative controls on each plate.
# Sequence of human P2Y12 receptor (Q9H244 whole entry): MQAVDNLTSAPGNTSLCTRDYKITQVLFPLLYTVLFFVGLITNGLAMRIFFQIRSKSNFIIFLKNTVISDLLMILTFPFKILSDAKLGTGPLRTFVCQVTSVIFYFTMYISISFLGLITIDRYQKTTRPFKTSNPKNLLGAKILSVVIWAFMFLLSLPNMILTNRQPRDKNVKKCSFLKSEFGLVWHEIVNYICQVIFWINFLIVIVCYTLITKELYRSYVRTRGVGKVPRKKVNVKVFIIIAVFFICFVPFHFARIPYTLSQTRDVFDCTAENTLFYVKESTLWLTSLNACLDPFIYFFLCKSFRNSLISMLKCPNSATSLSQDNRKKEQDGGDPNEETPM
row,SMILES,IC50
1,"CCOC(=O)N1CCN(C(=O)[C@H](CCC(=O)O)NC(=O)c2cc(OCC(=O)N3CCC[C@H]3C(=O)NCCF)n(-c3ccccc3)n2)[C@H](C)C1 [Example 151, (R)-4-[(S)-4-Carboxy-2-({5-[2-((S)-2-(2-fluoroethyl-carbamoyl)-pyrrolidin-1-yl)-2-oxo-ethoxy]-1-phenyl-1H-pyrazole-3-carbonyl}-amino)-butyryl]-3-methyl-piperazine-1-carboxylic acid ethyl ester]",166 nM
2,"CCOC(=O)N1CCN(C(=O)[C@H](CNS(C)(=O)=O)NC(=O)c2cc(OCC(=O)N3CCC[C@H]3C(=O)NC3CCC3)n(-c3ccccc3)n2)CC1 [Example 88, 4-[(S)-2-({5-[2-((S)-2-Cyclobutylcarbamoyl-pyrrolidin-1-yl)-2-oxo-ethoxy]-1-phenyl-1H-pyrazole-3-carbonyl}-amino)-3-methanesulfonylamino-propionyl]-piperazine-1-carboxylic acid ethyl ester]",125 nM
3,"CCCCOC(=O)N1CCN(C(=O)[C@H](CCCCOCc2ccccc2)NC(=O)c2cc(OCC(=O)N3CCC[C@H]3C(=O)NC3CCC3)n(-c3ccccc3)n2)CC1 [Example 196, 4-[(S)-6-Benzyloxy-2-({5-[2-((S)-2-cyclobutylcarbamoyl-pyrrolidin-1-yl)-2-oxo-ethoxy]-1-phenyl-1H-pyrazole-3-carbonyl}-amino)-hexanoyl]-piperazine-1-carboxylic acid butyl ester]",23 nM
4,"CCOC(=O)N1CCN(C(=O)[C@H](CCCCOCc2ccccc2)NC(=O)c2cc(OCC(=O)N3CCC[C@H]3C(=O)NC3CCC3)n(-c3ccccc3)n2)CC1 [Example 195, 4-[(S)-6-Benzyloxy-2-({5-[2-((S)-2-cyclobutylcarbamoyl-pyrrolidin-1-yl)-2-oxo-ethoxy]-1-phenyl-1H-pyrazole-3-carbonyl}-amino)-hexanoyl]-piperazine-1-carboxylic acid ethyl ester]",88 nM
5,"CCOC(=O)N1CCN(C(=O)[C@H](CCC(=O)O)NC(=O)c2cc(OCC(=O)N3CCC[C@H]3C(=O)NCC3CC3)n(-c3ccccc3)n2)[C@H](C)C1 [Example 152, (R)-4-[(S)-4-Carboxy-2-({5-[2-((S)-2-(cyclopropylmethyl-carbamoyl)-pyrrolidin-1-yl)-2-oxo-ethoxy]-1-phenyl-1H-pyrazole-3-carbonyl}-amino)-butyryl]-3-methyl-piperazine-1-carboxylic acid ethyl ester]",37 nM
6,"CCOC(=O)N1CCN(C(=O)[C@H](CCC(=O)OC2CCCCC2)NC(=O)c2cc(OCC(=O)N3CCC[C@H]3C(=O)NC3CCC3)n(-c3ccccc3)n2)CC1 [Example 129, 4-[(S)-2-({5-[2-((S)-2-Cyclobutylcarbamoyl-pyrrolidin-1-yl)-2-oxo-ethoxy]-1-phenyl-1H-pyrazole-3-carbonyl}-amino)-4-cyclohexyloxycarbonyl-butyryl]-piperazine-1-carboxylic acid ethyl ester]",83 nM
7,"CCCCOC(=O)N1CCN(C(=O)[C@@H](NC(=O)c2cc(OCC(=O)N3CCC[C@H]3C(=O)NC3CCC3)n(-c3ccccc3)n2)[C@H](C)CC)CC1 [Example 229, 4-[(2S,3R)-2-({5-[2-((S)-2-Cyclobutylcarbamoyl-pyrrolidin-1-yl)-2-oxo-ethoxy]-1-phenyl-1H-pyrazole-3-carbonyl}-amino)-3-methyl-pentanoyl]-piperazine-1-carboxylic acid butyl ester]",22 nM
